Assays:
[1] = test system: B16; experiment: Inhibition of alpha-MSH-induced melanin production in mouse B16 cells at 10 uM after 3 days; assay type: functional; details: B16, 72 h
[2] = test system: B16; experiment: Inhibition of alpha-MSH-induced melanin production in mouse B16 cells after 3 days; assay type: functional, cell-based; details: B16, 72 h

`NC(=S)NN=C(c1ccccc1)c1ccccc1` [BENZOPHENONE-THIOSEMICARBAZONE] was tested, and the inhibition at 10 µM [1] was 97% and the IC50 [2] was 4900 nM.
With `Cc1ccc(C(C)NNC(N)=S)cc1` (centres undefined) the inhibition at 10 µM [1] was 61% and the IC50 [2] was 8100 nM.
For `CC/C(=N\NC(=S)Nc1ccccc1)c1ccc(C)cc1`, the inhibition at 10 µM [1] was greater than 100% and the IC50 [2] was 790 nM.
With `CC/C(=N\N=C(\N)S)c1ccc(Br)cc1` the inhibition at 10 µM [1] was greater than 100% and the IC50 [2] was 2000 nM.
Molecule `COc1ccc(/C(C)=N/NC(N)=S)cc1` has an inhibition at 10 µM [1] greater than 100% and an IC50 [2] of 2700 nM.
With `CC(NNC(N)=S)c1ccccc1` (centres undefined) the inhibition at 10 µM [1] was 36% and the IC50 [2] was greater than 30000 nM.
`CC/C(=N\NC(N)=S)c1ccc(C)cc1` gave an inhibition at 10 µM [1] greater than 100% and an IC50 [2] of 2600 nM.
`NC(=S)N/N=C1\CCCc2ccccc21` was tested, and the inhibition at 10 µM [1] was greater than 100% and the IC50 [2] was 2300 nM.
Molecule `CC/C(=N\NC(=S)NC)c1ccc(C)cc1` has an inhibition at 10 µM [1] greater than 100% and an IC50 [2] of 2000 nM.
Molecule `C/C(=N\NC(N)=S)c1cccs1` has an inhibition at 10 µM [1] of 82% and an IC50 [2] of 6100 nM.
Work on `CCC(NNC(N)=S)c1ccc(C)cc1` (centres undefined) yielded an inhibition at 10 µM [1] greater than 100% and an IC50 [2] of 3900 nM.
`C/C(=N\NC(N)=S)c1ccc(C)cc1` showed an inhibition at 10 µM [1] greater than 100% and an IC50 [2] of 840 nM.
`CC/C(=N\N=C(\N)S)c1ccc(OC)cc1` gave an inhibition at 10 µM [1] greater than 100% and an IC50 [2] of 4000 nM.
`CCNC(=S)N/N=C(\CC)c1ccc(C)cc1` was tested, and the inhibition at 10 µM [1] was greater than 100% and the IC50 [2] was 1900 nM.
`C/C(=N\N=C(/N)S)c1ccccc1` [PHENYL(METHYL)THIOSEMICARBAZONE] gave an inhibition at 10 µM [1] greater than 100% and an IC50 [2] of 2300 nM.
For `CC(C)/C(=N\NC(N)=S)c1ccccc1`, the inhibition at 10 µM [1] was 96% and the IC50 [2] was 3700 nM.
`CC/C(=N\N=C(\N)S)c1ccc(Cl)cc1` was tested, and the inhibition at 10 µM [1] was greater than 100% and the IC50 [2] was 2900 nM.
